Broadly, the EC50 is the midpoint of the concentration-response curve.

Here are results for three compounds from ChEMBL document CHEMBL2203066 (J Med Chem, 2012).

Assay [1] deals with Influenza A virus. Put plainly: Antiviral activity against oseltamivir-resistant Influenza A virus A/WSN/1933/H275Y (pandemic H1N1) infected in MDCK cells assessed as protection against virus-induced cytopathic effect after 48 to 72 hrs by CellTiter 96 aqueous assay. Type of assay: functional, organism-based, A/WSN/1933/H275Y(H1N1).
Assay [2] relates to Influenza A virus. Put plainly: Antiviral activity against oseltamivir-resistant Influenza A virus A/Hong Kong/2369/09/H275Y(H1N1) infected in MDCK cells assessed as protection against virus-induced cytopathic effect after 48 to 72 hrs by CellTiter 96 aqueous assay. Type of assay: functional, organism-based.

For the compound `CCC(CC)O[C@@H]1C=C(P(=O)(O)O)C[C@H](NC(=N)N)[C@H]1NC(C)=O`, the EC50 in assay [1] turned out to be 3.2 µM; in assay [2], 4.6 µM.

Turning to `CCOP(=O)(O)C1=C[C@@H](OC(CC)CC)[C@H](NC(C)=O)[C@@H](N)C1` [TAMIPHOSPHOR MONOETHYL ESTER], the values for the half-maximal effective concentration (EC50) in assay [1] and in assay [2] were 0.49 µM and 0.44 µM, respectively.

Take `CCC(CC)O[C@@H]1C=C(P(=O)(O)O)C[C@H](N)[C@H]1NC(C)=O` [TAMIPHOSPHOR]: the concentration giving a half-maximal response (EC50) in assay [1] worked out at 7.4 µM; in assay [2] it was 6.55 µM.
